Here are results for 3 compounds from US6630313B2, “Phosphatidyl serine receptors and uses thereof” (National Jewish Medical and Research Center, priority 2000, dated 2003).

Assay [1] deals with Jurkat T cells transfected with the candidate PSR. The experiment in a line: Binding and phagocytosis of symmetric red cell ghosts. It is filed as cell-based, human. Particulars: for binding of symmetric red cell ghosts: FIG. 5; for binding and phagocytosis of symmetric red cell ghosts: stably transfected Jurkat T cells, FIG. 5 legend. From the text:
A human EST clone (Accession No. R24727) containing the full length gene was obtained through the IMAGE Consortium via ATCC (Manassas, Va.). The insert was subcloned into pcDNA 3.1/neo at Hind III/Not I sites (Invitrogen, Carlsbad, Calif.). M12.C3 cells were transfected in OptiMEM I medium using Lipofectamine Plus (both from GibcoBRL Life Science Technologies, Grand Island, N.Y.). Jurkat T cells were transfected in OptiMEM I medium using DMRIE C Jurkat T cells were stimulated with PHA alone (1 μg/ml) or with PMA (1.6 nM) and PHA to induce expression of the receptor. After 48 hrs, the cells were analyzed for expression of the PS receptor using mAb 217 and flow cytometry. For stable transfections, Jurkat T cells were selected in G418 (1 mg/ml). Surface expression of the receptor was induced by treatment of the stably transfected cells with 160 nM PMA in the absence of G418 for 48 hours. The candidate PSR was also inserted into pRc/RSV (PharMingen, San Diego, Calif.), or pUP (provided by Brian Schaefer), and transfected into Jurkat T cells or M12.C3 cells by electroporation.
Human red blood cells were lysed in 1:50 PBS containing 1 mM CaCl2 on ice for one hour; they were resealed at 37° C. for 30 minutes by addition of 5×PBS. Exposure of phosphatidylserine was confirmed by binding of annexin-FITC, assessed by flow cytometry.

In assay [2] the test system is HMDM. As to the kind of experiment: Uptake of apoptotic cells by HMDM. Particulars: control agents. It is filed as cell-based, human. As to the method: Human monocytes were obtained from normal donors, and cultured in X-Vivo 10 (BioWhitaker) containing 10% human serum. The differentiated macrophages (HMDM) were used at 7 days of culture. Mouse bone-marrow derived macrophages were derived by culturing bone marrow cells in M-CSF for 5-7 days.
Macrophages, fibroblasts, or epithelial cells were preincubated with 100 μM liposomes (containing 50:50 molar ratio of PS:PC or PI:PC), 1 mM RGDS or RGES, undiluted hybridoma supernatants containing mAb 217 or mAb 284 (for HMDM) or 100 μg/ml purified mAb 217, or 100 μg/ml isotype controls for 30 minutes prior to adding apoptotic Jurkat T cells at ratio of 5:1 target:phagocyte. Apoptosis was induced in Jurkat T cell by UV irradiation as described (Fadok et al., J Clin Invest 101:890-898 (1998)). THP-1 cells were stimulatedwith PMA (160 nM) for 72 hours to induce a macrophage phenotype, the ability to adhere, and the ability to take up apoptotic cells. After 1 hr, the phagocytes were washed and fixed for light microscopic evaluation of uptake. […] Aliquots were removed and assessed for binding and phagocytosis by light microscopy as described (Fadok et al., J Immunol 148:2207-2216 (1992); Fadok et al., J Immunol 149:4029-4035 (1992); Fadok et al., J Immunol 151:4274-4285 (1993); Fadok et al., J Immunol 161:6250-6257 (1998)). […]

With `N[C@H](COP(=O)(O)O)C(=O)O` [phospho-D-serine], in assay [1], the “binding of symmetric red cell ghosts” value is reported as “not”; the “binding and phagocytosis of symmetric red cell ghosts” value was “not”.
As for `N[C@@H](COP(=O)(O)O)C(=O)O` [phospho-L-serine], in assay [1], the “binding of symmetric red cell ghosts” value is on record as “inhibited”; the “binding and phagocytosis of symmetric red cell ghosts” value is listed as “inhibited stereospecifically”.
Take RGES: the “effect on uptake of apoptotic cells by HMDM” value in assay [2] is on record as “no effect”.
